Drawing on patent US10357481B2 (MERCK SHARP & DOHME CORP., priority 2015, dated 2019), this text covers Ki for 21 compounds.

The test concerns the target T1, human PDE2A1 (Homo sapiens, UniProt O00408).
T1 construct: GST; purchased BPS Bioscience (San Diego, Calif.) 60020; host or cells: insect cells
Description: IMAP FP PDE selectivity panel, human PDE2A1. It counts as biochemical. The settings on record: Lab B; read-out: Human PDE2 Ki (nM) Lab B. In short, it runs like this: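 IMAP FP read-out, run at room temperature in parallel with PDE1–11: enzyme at 20% substrate conversion, 50 nM FAM-cAMP containing 1000 nM cGMP, Tris pH 7.2/MgCl2/DTT buffer. Compounds as ten 3-fold dilutions. Reaction 60 min, stopped with binding reagent for 1 h before polarization measurement.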

The term Ki denotes the dissociation constant of the complex between target and ligand, obtained from inhibition or displacement.

Some results are limits rather than exact numbers.

T1 sequence (O00408 1-920 isoform O00408-2): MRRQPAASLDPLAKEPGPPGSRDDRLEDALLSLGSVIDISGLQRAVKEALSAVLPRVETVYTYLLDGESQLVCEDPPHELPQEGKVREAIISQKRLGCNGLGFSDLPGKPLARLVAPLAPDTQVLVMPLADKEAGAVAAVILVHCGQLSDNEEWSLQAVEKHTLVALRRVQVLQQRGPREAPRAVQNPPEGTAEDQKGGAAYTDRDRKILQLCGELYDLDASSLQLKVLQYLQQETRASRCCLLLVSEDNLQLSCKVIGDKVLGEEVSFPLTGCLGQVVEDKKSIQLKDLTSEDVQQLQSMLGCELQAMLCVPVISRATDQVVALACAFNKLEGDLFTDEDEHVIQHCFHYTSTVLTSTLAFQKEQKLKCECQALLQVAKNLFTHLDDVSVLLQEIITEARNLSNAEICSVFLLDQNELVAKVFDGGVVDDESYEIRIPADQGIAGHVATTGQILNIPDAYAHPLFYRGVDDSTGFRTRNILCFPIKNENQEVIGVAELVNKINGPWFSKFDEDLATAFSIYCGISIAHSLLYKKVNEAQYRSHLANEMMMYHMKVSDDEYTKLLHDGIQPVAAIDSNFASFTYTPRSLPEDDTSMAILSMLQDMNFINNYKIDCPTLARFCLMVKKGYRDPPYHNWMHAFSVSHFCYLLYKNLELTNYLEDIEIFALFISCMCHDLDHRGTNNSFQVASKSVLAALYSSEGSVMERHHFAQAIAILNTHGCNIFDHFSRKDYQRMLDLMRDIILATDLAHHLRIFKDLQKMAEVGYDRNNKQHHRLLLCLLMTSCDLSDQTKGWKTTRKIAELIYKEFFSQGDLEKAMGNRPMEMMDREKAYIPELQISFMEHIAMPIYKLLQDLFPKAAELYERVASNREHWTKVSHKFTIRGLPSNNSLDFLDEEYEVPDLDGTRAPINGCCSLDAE

Turning to `C[C@@H](Nc1cc(CO)cc2ncnn12)c1ccc(C(F)(F)F)c(F)c1` [Example 272, [5-({(1R)-1-[3-Fluoro4-(trifluoromethyl)phenyl]ethyl}amino)[1,2,4]triazolo[1,5-a]pyridin-7-yl]methanol], the Ki worked out at 121 nM. Take `CC(C)(O)[C@@H](Nc1cc(CO)cc2ncnn12)c1ccc(OC(F)(F)F)cc1F` [Example 273, (1S)-1-[2-Fluoro-4-(trifluoromethoxy)phenyl]-1-{[7-(hydroxymethyl)[1,2,4]triazolo [1,5-a]pyridin-5-yl]amino}-2-methylpropan-2-ol]: the inhibition constant (Ki) was determined as 102 nM.

With `Fc1cc(C2(Nc3cc(C(F)F)cc4ncnn34)CC2)ccc1C(F)(F)F` [Example 274, 7-(Difluoromethyl)-N-(1-(3-fluoro-4-(trifluoromethy)phenyl)cyclopropyl)-[1,2,4]triazol-[1,5-a]pyridin-5-amine], the inhibition constant (Ki) stood at 11 nM.

As to `CC(O)c1cc(NC2(c3ccc(C(F)(F)F)c(F)c3)CC2)n2ncnc2c1` (stereo not drawn) [Example 275, 1-(5-((1-(3-Fluoro-4-(trifluoromethyl)phenyl)cyclopropyl)amino)-[1,2,4]triazolo[1,5-a]pyridin-7-yl)ethanol], the inhibition constant (Ki) was 111 nM. For `Fc1cc(C2(Nc3cc(C(F)(F)F)cc4ncnn34)CC2)ccc1C(F)(F)F` [Example 276, N-(1-(3-fluoro-4-(trifluoromethyl)phenyl)cyclopropyl)-7-(trifluoromethyl)-[1,2,4]triazolo[1,5-a]pyridin-5-amine], the inhibition constant (Ki) stood at 68 nM. Regarding `CC(C)(O)[C@@H](Nc1cc(C(F)(F)F)cc2ncnn12)c1ccc(C(F)(F)F)cc1` [Example 277, (1S)-2-Methyl-1-[4-(trifluoromethyl)phenyl]-1-{[7-(trifluoromethyl)[1,2,4]triazolo [1,5-a]pyridin-5-yl]amino} propan-2-ol], the Ki came to 87 nM. Regarding `CC(C)(O)[C@@H](Nc1cc(C(F)(F)F)cc2ncnn12)c1ccc(OC(F)(F)F)cc1F` [Example 278, (1S)-1-[2-Fluoro-4-(trifluoromethoxy)phenyl]-2-methyl-1-{[7-(trifluoromethyl) [1,2,4]triazolo[1,5α]pyridin-5-yl]amino}propan-2-ol], the Ki amounted to 92 nM. Turning to `CC(C)(O)[C@@H](Nc1cc(C(F)F)cc2ncnn12)c1ccc(OC(F)(F)F)c(F)c1` [Example 279, (S)-1-((7-(Difluoromethyl)-[1,2,4]triazolo[1,5-a]pyridin-5-yl)amino)-1-(3-fluoro-4-(trifluoromethoxy)phenyl)-2-methylpropan-2-ol], the inhibition constant (Ki) was found to be 41 nM.

Regarding `CC(C)(O)[C@@H](Nc1cc(C(F)F)cc2ncnn12)c1ccc(C(F)(F)F)cc1` [Example 280, (1S)-1-{[7-(Difluoromethyl) [1,2,4]triazolo[1,5-a]pyridin-5-yl]amino}-1-[4-(trifluoromethyl)phenyl]-2-methylpropan-2-ol], the inhibitory constant (Ki) is 20 nM. In the case of `CC(C)(O)[C@@H](Nc1cc(C(F)F)cc2ncnn12)c1ccc(OC(F)(F)F)cc1F` [Example 281, (1S)-1-{[7-(Difluoromethyl) [1,2,4]triazolo[1,5-a]pyridin-5-yl]amino}-1-[2-fluoro-4-(trifluoromethoxy)phenyl]-2-methylpropan-2-ol], the Ki turned out to be 40 nM. Turning to `CC(C)(O)[C@@H](Nc1cc(C(F)F)cc2ncnn12)c1ccc(S(F)(F)(F)(F)F)cc1` [Example 282, (1S)-1-{[7-(Difluoromethyl) [1,2,4]triazolo[1,5-a]pyridin-5-yl]amino}-2-methyl-1-[4-(pentafluoro-λ^6-sulfanyl)phenyl]propan-2-ol], the Ki was determined as 7.8 nM. The same measure for `CC(C)(O)[C@H](Nc1cc(C(F)F)cc2ncnn12)c1ccc(S(F)(F)(F)(F)F)cc1` [Example 283, (1R)-1-{[7-(Difluoromethyl) [1,2,4]triazolo[1,5-a]pyridin-5-yl]amino}-2-methyl-1-[4-(pentafluoro-λ^6-sulfanyl)phenyl]propan-2-ol]: 498 nM.

On to `CC(C)(C)[C@@H](Nc1cncc2ncnn12)c1ccc(C(F)(F)F)c(F)c1` [Example 284], for which the inhibitory constant (Ki) was found to be 156 nM.

Turning to `Fc1cc(C2(Nc3cncc4ncnn34)CC2)ccc1C(F)(F)F` [Example 285, N-{1-[3-Fluoro-4-(trifluoromethyl)phenyl]cyclopropyl}[1,2,4]triazolo [1,5-a]pyrazin-5-amine], the Ki was determined as 22 nM.

As for `CC(C)(O)[C@@H](Nc1cncc2ncnn12)c1ccc(OC(F)(F)F)c(F)c1` [Example 286, (1S)-1-[3-Fluoro-4-(trifluoromethoxy)phenyl]-2-methyl-1-([1,2,4]triazolo[1,5-a]pyrazin-5-ylamino)propan-2-ol], the Ki was 209 nM. Under `CC(C)(O)[C@@H](Nc1cncc2ncnn12)c1ccc(C(F)(F)F)cc1` [Example 287, (1S)-2-Methyl-1-([1,2,4]triazolo[1,5-a]pyrazin-5-ylamino)-1-[4-(trifluoromethyl)phenyl]propan-2-ol] stands 150 nM. On to `C[C@@H](Nc1cncc2ncnn12)c1ccc(C(F)(F)F)cc1` [Example 288], for which the inhibitory constant (Ki) turned out to be 221 nM. Under `C[C@H](Nc1cncc2ncnn12)c1ccc(C(F)(F)F)cc1` [Example 289] stands > 2960 nM. Turning to `FS(F)(F)(F)(F)c1ccc(C2(Nc3cncc4ncnn34)CC2)cc1` [Example 290, N-{1-[4-(Pentafluoro-λ^6-sulfanyl)phenyl]cyclopropyl} [1,2,4]triazolo[1,5-a]pyrazin-5-amine], the inhibition constant (Ki) came to 90 nM. Turning to `CC(C)(O)[C@@H](Nc1cc(C(F)(F)F)cc2nc(N)nn12)c1ccc(C(F)(F)F)cc1` [Example 294, (S)-1-((2-Amino-7-(trifluoromethyl)-[1,2,4]triazolo[1,5-a]pyridin-5-yl)amino)-2-methyl-1-(4-(trifluoromethyl)phenyl)propan-2-ol], the Ki was 678 nM.

As to “(R or S)-2,2-Dimethyl-3-(3-methyl-4-(trifluoromethoxy)phenyl)-3-(5-methyl-[1,2,4]triazolo[1,5-a]pyrimidin-7-ylamino)propan-1-ol [Example 231]”, the Ki was 7.3 nM.
